Measured values taken from patent US10988477B2 (Merck Patent GmbH, priority 2018, dated 2021).

Target: GCN2 kinase (Homo sapiens, UniProt Q9P2K8)
Assay: GCN2 enzyme inhibition assay (Transcreener ADP2 fluorescence polarization)
Format: biochemical
Conditions: Enzyme activity for compounds of Formula IV; Ki(app), 280 μM ATP, 25° C.
Summary of the method: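 Kinase activity is followed as ADP formation, measured by fluorescence polarization, using 4 nM enzyme with 280 μM ATP and 200 μM (RS)7 peptide at pH 7.5 and 25 °C for 1 h. Values come from a non-linear tight-binding fit.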

Chain of GCN2 kinase (Q9P2K8 whole entry): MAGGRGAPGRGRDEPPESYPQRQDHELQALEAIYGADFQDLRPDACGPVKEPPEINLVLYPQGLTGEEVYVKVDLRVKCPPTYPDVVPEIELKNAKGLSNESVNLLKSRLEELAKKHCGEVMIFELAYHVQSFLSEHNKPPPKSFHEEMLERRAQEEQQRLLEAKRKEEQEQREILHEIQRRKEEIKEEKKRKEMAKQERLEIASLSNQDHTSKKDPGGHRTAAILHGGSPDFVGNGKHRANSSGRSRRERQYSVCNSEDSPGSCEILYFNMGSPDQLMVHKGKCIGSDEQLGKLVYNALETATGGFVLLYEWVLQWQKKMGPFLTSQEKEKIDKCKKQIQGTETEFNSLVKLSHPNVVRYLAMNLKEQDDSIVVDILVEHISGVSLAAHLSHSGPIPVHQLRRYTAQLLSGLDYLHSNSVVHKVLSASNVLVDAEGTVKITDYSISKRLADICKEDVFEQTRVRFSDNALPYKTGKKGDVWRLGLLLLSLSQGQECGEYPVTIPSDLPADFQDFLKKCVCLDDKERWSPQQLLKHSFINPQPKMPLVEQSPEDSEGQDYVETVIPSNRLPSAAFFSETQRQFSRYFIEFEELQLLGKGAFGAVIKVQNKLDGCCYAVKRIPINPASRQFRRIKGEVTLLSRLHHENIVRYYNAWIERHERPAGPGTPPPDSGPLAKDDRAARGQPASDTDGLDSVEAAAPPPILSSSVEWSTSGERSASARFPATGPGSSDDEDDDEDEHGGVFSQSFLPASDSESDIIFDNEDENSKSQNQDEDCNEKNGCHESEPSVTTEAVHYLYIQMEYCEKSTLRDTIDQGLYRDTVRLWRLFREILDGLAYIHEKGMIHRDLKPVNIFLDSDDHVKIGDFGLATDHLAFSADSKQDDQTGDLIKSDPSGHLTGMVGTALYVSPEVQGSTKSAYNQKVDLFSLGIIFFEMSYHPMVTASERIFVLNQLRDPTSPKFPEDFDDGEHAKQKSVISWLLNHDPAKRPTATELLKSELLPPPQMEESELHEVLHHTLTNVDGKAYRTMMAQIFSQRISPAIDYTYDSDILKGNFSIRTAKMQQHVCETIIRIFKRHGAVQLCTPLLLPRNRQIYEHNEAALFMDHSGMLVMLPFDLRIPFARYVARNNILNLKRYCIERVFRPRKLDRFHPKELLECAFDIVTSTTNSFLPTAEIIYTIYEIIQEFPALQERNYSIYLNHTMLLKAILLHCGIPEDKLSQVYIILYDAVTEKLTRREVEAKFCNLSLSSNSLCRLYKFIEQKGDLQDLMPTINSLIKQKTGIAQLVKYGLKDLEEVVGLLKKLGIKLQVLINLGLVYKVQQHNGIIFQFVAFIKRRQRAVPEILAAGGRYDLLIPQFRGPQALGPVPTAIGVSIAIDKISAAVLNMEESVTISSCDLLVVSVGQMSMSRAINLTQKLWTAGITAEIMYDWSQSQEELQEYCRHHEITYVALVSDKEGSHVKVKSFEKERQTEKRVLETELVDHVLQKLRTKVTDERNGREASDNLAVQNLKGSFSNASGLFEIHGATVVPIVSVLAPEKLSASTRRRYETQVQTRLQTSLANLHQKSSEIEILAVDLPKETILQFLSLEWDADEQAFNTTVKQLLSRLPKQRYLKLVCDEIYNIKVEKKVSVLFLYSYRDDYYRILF

SMILES	Ki
CC(=O)N1CCN(c2ccnc(-c3cnc4cnc(-c5cc[nH]n5)cn34)n2)CC1 [IV-203, 1-(4-(2-(6-(1H-Pyrazol-3-yl)imidazo[1,2-a]pyrazin-3-yl)pyrimidin-4-yl)piperazin-1-yl)ethan-1-one]	10 to 100 nM
CC1CCCN(c2cccc(-c3cnc4cnc(C(N)=O)cn34)n2)C1 (stereo not drawn) [IV-205, 3-(6-(3-Methylpiperidin-1-yl)pyridin-2-yl)imidazo[1,2-a]pyrazine-6-carboxamide]	10 to 100 nM
CN1CCN(c2cccc(-c3cnc4cnc(C(N)=O)cn34)n2)CC1 [IV-212, 3-(6-(4-Methylpiperazin-1-yl)pyridin-2-yl)imidazo[1,2-a]pyrazine-6-carboxamide]	100 to 1000 nM
CC1C(c2cn[nH]c2)OCCN1c1ccnc(-c2cnc3cnc(C(F)(F)F)cn23)n1 (stereo not drawn) [IV-218, 3-Methyl-2-(1H-pyrazol-4-yl)-4-(2-(6-(trifluoromethyl)imidazo[1,2-a]pyrazin-3-yl)pyrimidin-4-yl)morpholine]	10 to 100 nM
NC(=O)c1cn2c(-c3cccc(N4CCC(O)CC4)n3)cnc2cn1 [IV-219, 3-(6-(4-Hydroxypiperidin-1-yl)pyridin-2-yl)imidazo[1,2-a]pyrazine-6-carboxamide]	10 to 100 nM
NC(=O)c1cn2c(-c3cccc(N4CCCC(CO)C4)n3)cnc2cn1 (stereo not drawn) [IV-220, 3-(6-(3-(Hydroxymethyl)piperidin-1-yl)pyridin-2-yl)imidazo[1,2-a]pyrazine-6-carboxamide]	10 to 100 nM
NC(=O)c1cn2c(-c3cccc(N4CCC(CO)CC4)n3)cnc2cn1 [IV-221, 3-(6-(4-(Hydroxymethyl)piperidin-1-yl)pyridin-2-yl)imidazo[1,2-a]pyrazine-6-carboxamide]	10 to 100 nM
CC(C)(O)C1CCN(c2cccc(-c3cnc4cnc(C(N)=O)cn34)n2)CC1 [IV-226, 3-(6-(4-(2-Hydroxypropan-2-yl)piperidin-1-yl)pyridin-2-yl)imidazo[1,2-a]pyrazine-6-carboxamide]	10 to 100 nM
NC(=O)c1cn2c(-c3cccc(N4CCN5C(=O)NCC5C4)n3)cnc2cn1 (stereo not drawn) [IV-227, 3-(6-(3-Oxohexahydroimidazo[1,5-a]pyrazin-7(1H)-yl)pyridin-2-yl)imidazo[1,2-a]pyrazine-6-carboxamide]	100 to 1000 nM
FC(F)c1cn2c(-c3cccc(-c4cccc5[nH]ccc45)n3)cnc2cn1 [IV-233, 3-(6-(1H-Indol-4-yl)pyridin-2-yl)-6-(difluoromethyl)imidazo[1,2-a]pyrazine]	10 to 100 nM
CN1CCN(c2ccnc(-c3cnc4cnc(C(N)=O)cn34)n2)CC1 [IV-239, 3-(4-(4-Methylpiperazin-1-yl)pyrimidin-2-yl)imidazo[1,2-a]pyrazine-6-carboxamide]	100 to 1000 nM
NC(=O)c1cn2c(-c3nccc(N4CCOCC4)n3)cnc2cn1 [IV-240]	100 to 1000 nM
NC(=O)c1cn2c(-c3nccc(N4CCCCC4CO)n3)cnc2cn1 (stereo not drawn) [IV-241, 3-(4-(2-(Hydroxymethyl)piperidin-1-yl)pyrimidin-2-yl)imidazo[1,2-a]pyrazine-6-carboxamide]	100 to 1000 nM
NC(=O)c1cn2c(-c3nccc(N4CCCC(CO)C4)n3)cnc2cn1 (stereo not drawn) [IV-242, 3-(4-(3-(Hydroxymethyl)piperidin-1-yl)pyrimidin-2-yl)imidazo[1,2-a]pyrazine-6-carboxamide]	10 to 100 nM
NC(=O)c1cn2c(-c3nccc(N4CCC(CO)CC4)n3)cnc2cn1 [IV-243, 3-(4-(4-(Hydroxymethyl)piperidin-1-yl)pyrimidin-2-yl)imidazo[1,2-a]pyrazine-6-carboxamide]	10 to 100 nM
CC(=O)NC1CCN(c2ccnc(-c3cnc4cnc(C(N)=O)cn34)n2)CC1 [IV-248, 3-(4-(4-Acetamidopiperidin-1-yl)pyrimidin-2-yl)imidazo[1,2-a]pyrazine-6-carboxamide]	10 to 100 nM
CC(=O)NC1CCCN(c2ccnc(-c3cnc4cnc(C(N)=O)cn34)n2)C1 (stereo not drawn) [IV-249, 3-(4-(3-Acetamidopiperidin-1-yl)pyrimidin-2-yl)imidazo[1,2-a]pyrazine-6-carboxamide]	100 to 1000 nM
CS(=O)(=O)NC1CCCN(c2ccnc(-c3cnc4cnc(C(N)=O)cn34)n2)C1 (stereo not drawn) [IV-250, 3-(4-(3-(Methylsulfonamido)piperidin-1-yl)pyrimidin-2-yl)imidazo[1,2-a]pyrazine-6-carboxamide]	100 to 1000 nM
CNS(=O)(=O)C1CCCN(c2ccnc(-c3cnc4cnc(C(N)=O)cn34)n2)C1 (stereo not drawn) [IV-251, 3-(4-(3-(N-Methylsulfamoyl)piperidin-1-yl)pyrimidin-2-yl)imidazo[1,2-a]pyrazine-6-carboxamide]	100 to 1000 nM
CNS(=O)(=O)C1CCN(c2ccnc(-c3cnc4cnc(C(N)=O)cn34)n2)CC1 [IV-252, 3-(4-(4-(N-Methylsulfamoyl)piperidin-1-yl)pyrimidin-2-yl)imidazo[1,2-a]pyrazine-6-carboxamide]	100 to 1000 nM
N#CC1CN(c2ccnc(-c3cnc4cnc(C(N)=O)cn34)n2)CCC1=O (stereo not drawn) [IV-253, 3-(4-(3-Cyano-4-oxopiperidin-1-yl)pyrimidin-2-yl)imidazo[1,2-a]pyrazine-6-carboxamide]	10 to 100 nM
N#CC1CCN(c2ccnc(-c3cnc4cnc(C(N)=O)cn34)n2)CC1 [IV-254, 3-(4-(4-Cyanopiperidin-1-yl)pyrimidin-2-yl)imidazo[1,2-a]pyrazine-6-carboxamide]	10 to 100 nM
FC(F)(F)c1cn2c(-c3nccc(N4CCCC(n5ccnc5)C4)n3)cnc2cn1 (stereo not drawn) [IV-255, 3-(4-(3-(1H-Imidazol-1-yl)piperidin-1-yl)pyrimidin-2-yl)-6-(trifluoromethyl)imidazo[1,2-a]pyrazine]	10 to 100 nM
NC(=O)c1cn2c(-c3nccc(N4CCCC(N)C4)n3)cnc2cn1 (stereo not drawn) [IV-256, 3-(4-(3-Aminopiperidin-1-yl)pyrimidin-2-yl)imidazo[1,2-a]pyrazine-6-carboxamide]	100 to 1000 nM
NC(=O)c1cn2c(-c3nccc(N4CCN5C(=O)CCCC5C4)n3)cnc2cn1 (stereo not drawn) [IV-257, 3-(4-(6-Oxooctahydro-2H-pyrido[1,2-a]pyrazin-2-yl)pyrimidin-2-yl)imidazo[1,2-a]pyrazine-6-carboxamide]	10 to 100 nM
N#CC1CCCCN1c1ccnc(-c2cnc3cnc(C(N)=O)cn23)n1 (stereo not drawn) [IV-258, 3-(4-(2-Cyanopiperidin-1-yl)pyrimidin-2-yl)imidazo[1,2-a]pyrazine-6-carboxamide]	100 to 1000 nM
CC(=O)N1CCN(c2cccc(-c3cnc4cnc(C(F)(F)F)cn34)n2)CC1 [IV-259, 1-(4-(6-(6-(Trifluoromethyl)imidazo[1,2-a]pyrazin-3-yl)pyridin-2-yl)piperazin-1-yl)ethan-1-one]	100 to 1000 nM
CNC(=O)c1cn2c(-c3cccc(N4CCN(C(C)=O)CC4)n3)cnc2cn1 [IV-260, 3-(6-(4-Acetylpiperazin-1-yl)pyridin-2-yl)-N-methylimidazo[1,2-a]pyrazine-6-carboxamide]	10 to 100 nM
CC1CCCCN1c1ccnc(-c2cnc3cnc(C(N)=O)cn23)n1 (stereo not drawn) [IV-261, 3-(4-(2-Methylpiperidin-1-yl)pyrimidin-2-yl)imidazo[1,2-a]pyrazine-6-carboxamide]	10 to 100 nM
NC(=O)c1cn2c(-c3nccc(N4CCC(=O)N5CCCC5C4)n3)cnc2cn1 (stereo not drawn) [IV-262, 3-(4-(5-Oxohexahydro-1H-pyrrolo[1,2-a][1,4]diazepin-2(3H)-yl)pyrimidin-2-yl)imidazo[1,2-a]pyrazine-6-carboxamide]	100 to 1000 nM
